Assay: mn = molality of the nth substance listed, in mol/kg
Settings: 101 kPa, Liquid; for speed of sound: Linear variable-path acoustic interferometer; for mass density: Pycnometric method

C[C@@H](O)[C@H](N)C(=O)O [L-threonine] + O
Settings | mass density [kg/m3] | speed of sound [m/s]
275.15 K, m1 = 0.0337 | 1001.56 | 1415.3
275.15 K, m1 = 0.0672 | 1003.12 | 1418.7
275.15 K, m1 = 0.1009 | 1004.6 | 1422
275.15 K, m1 = 0.1338 | 1006.09 | 1425.3
275.15 K, m1 = 0.1674 | 1007.23 | 1428.6
275.15 K, m1 = 0.2002 | 1008.62 | 1431.8
275.15 K, m1 = 0.2334 | 1010.1 | 1435.1
275.15 K, m1 = 0.2689 | 1011.67 | 1438.6
275.15 K, m1 = 0.3009 | 1012.89 | 1441.8
275.15 K, m1 = 0.3345 | 1014.39 | 1445.1
275.15 K, m1 = 0.3679 | 1015.8 | 1448.4
275.15 K, m1 = 0.4054 | 1017.24 | 1452.2
279.15 K, m1 = 0.0337 | 1001.55 | 1433.1
279.15 K, m1 = 0.0671 | 1002.96 | 1436.2
279.15 K, m1 = 0.101 | 1004.52 | 1439.3
279.15 K, m1 = 0.1342 | 1005.69 | 1442.3
279.15 K, m1 = 0.1665 | 1006.97 | 1445.3
279.15 K, m1 = 0.2002 | 1008.49 | 1448.4
279.15 K, m1 = 0.235 | 1009.98 | 1451.6
279.15 K, m1 = 0.2673 | 1011.46 | 1454.5
279.15 K, m1 = 0.2996 | 1012.62 | 1457.5
279.15 K, m1 = 0.3683 | 1015.5 | 1463.8
279.15 K, m1 = 0.4005 | 1016.91 | 1466.8
283.15 K, m1 = 0.0224 | 1000.69 | 1449
283.15 K, m1 = 0.0677 | 1002.52 | 1453.1
283.15 K, m1 = 0.101 | 1004.25 | 1456.1
283.15 K, m1 = 0.1362 | 1005.58 | 1459.2
283.15 K, m1 = 0.1665 | 1006.81 | 1461.9
283.15 K, m1 = 0.2005 | 1008.32 | 1465
283.15 K, m1 = 0.2345 | 1009.56 | 1468.1
283.15 K, m1 = 0.2725 | 1011.21 | 1471.5
283.15 K, m1 = 0.2996 | 1012.33 | 1473.9
283.15 K, m1 = 0.3351 | 1013.76 | 1477.1
283.15 K, m1 = 0.3677 | 1015.01 | 1480
283.15 K, m1 = 0.3928 | 1016.16 | 1482.3

N=C(N)NCCC[C@H](N)C(=O)O [L-arginine] + O
Settings | mass density [kg/m3] | speed of sound [m/s]
275.15 K, m1 = 0.0381 | 1002.25 | 1416.9
275.15 K, m1 = 0.0808 | 1004.4 | 1422.5
275.15 K, m1 = 0.1223 | 1006.6 | 1427.9
275.15 K, m1 = 0.1659 | 1008.86 | 1433.5
275.15 K, m1 = 0.2092 | 1010.74 | 1439.2
275.15 K, m1 = 0.2503 | 1012.81 | 1444.5
275.15 K, m1 = 0.2909 | 1014.82 | 1449.8
275.15 K, m1 = 0.3371 | 1017.05 | 1455.8
275.15 K, m1 = 0.3742 | 1018.75 | 1460.6
275.15 K, m1 = 0.4153 | 1020.74 | 1465.9
275.15 K, m1 = 0.4529 | 1022.49 | 1470.8
275.15 K, m1 = 0.5067 | 1024.97 | 1477.8
279.15 K, m1 = 0.0381 | 1002.12 | 1434.5
279.15 K, m1 = 0.0808 | 1004.33 | 1439.6
279.15 K, m1 = 0.1225 | 1005.88 | 1444.5
279.15 K, m1 = 0.1847 | 1009.11 | 1451.9
279.15 K, m1 = 0.2092 | 1010.49 | 1454.8
279.15 K, m1 = 0.25 | 1012.51 | 1459.7
279.15 K, m1 = 0.2932 | 1014.5 | 1464.8
279.15 K, m1 = 0.3459 | 1017.1 | 1471.1
279.15 K, m1 = 0.3742 | 1018.39 | 1474.4
279.15 K, m1 = 0.4177 | 1020.39 | 1479.6
279.15 K, m1 = 0.4601 | 1022.35 | 1484.6
279.15 K, m1 = 0.5176 | 1025.01 | 1491.4
283.15 K, m1 = 0.0379 | 1001.53 | 1451.4
283.15 K, m1 = 0.0806 | 1003.83 | 1456.3
283.15 K, m1 = 0.1228 | 1005.96 | 1461.2
283.15 K, m1 = 0.1755 | 1008.59 | 1467.2
283.15 K, m1 = 0.2052 | 1009.81 | 1470.7
283.15 K, m1 = 0.2496 | 1012.14 | 1475.8
283.15 K, m1 = 0.291 | 1014.12 | 1480.5
283.15 K, m1 = 0.3386 | 1016.31 | 1486
283.15 K, m1 = 0.3757 | 1017.99 | 1490.3
283.15 K, m1 = 0.416 | 1019.92 | 1495
283.15 K, m1 = 0.4566 | 1021.75 | 1499.6
283.15 K, m1 = 0.5031 | 1023.84 | 1505

CC(C)[C@H](N)C(=O)O [L-valine] + O
Settings | mass density [kg/m3] | speed of sound [m/s]
275.15 K, m1 = 0.034 | 1000.99 | 1416.5
275.15 K, m1 = 0.0672 | 1001.86 | 1420.9
275.15 K, m1 = 0.1028 | 1002.93 | 1425.7
275.15 K, m1 = 0.1349 | 1003.79 | 1429.9
275.15 K, m1 = 0.1675 | 1004.61 | 1434.3
275.15 K, m1 = 0.2021 | 1005.54 | 1438.9
275.15 K, m1 = 0.233 | 1006.4 | 1443
275.15 K, m1 = 0.2667 | 1007.34 | 1447.5
275.15 K, m1 = 0.3009 | 1008.25 | 1452
275.15 K, m1 = 0.3669 | 1009.99 | 1460.8
275.15 K, m1 = 0.4066 | 1011.08 | 1466.1
279.15 K, m1 = 0.0341 | 1000.9 | 1434.1
279.15 K, m1 = 0.0671 | 1001.87 | 1438.1
279.15 K, m1 = 0.1009 | 1002.75 | 1442.1
279.15 K, m1 = 0.1418 | 1003.8 | 1447
279.15 K, m1 = 0.1696 | 1004.51 | 1450.4
279.15 K, m1 = 0.2021 | 1005.51 | 1454.3
279.15 K, m1 = 0.2382 | 1006.36 | 1458.6
279.15 K, m1 = 0.2782 | 1007.44 | 1463.4
279.15 K, m1 = 0.2983 | 1007.95 | 1465.8
279.15 K, m1 = 0.3342 | 1008.96 | 1470.2
279.15 K, m1 = 0.3652 | 1009.77 | 1473.9
279.15 K, m1 = 0.3951 | 1010.57 | 1477.5
283.15 K, m1 = 0.0341 | 1000.61 | 1450.7
283.15 K, m1 = 0.0669 | 1001.41 | 1454.2
283.15 K, m1 = 0.1015 | 1002.33 | 1458
283.15 K, m1 = 0.1349 | 1003.08 | 1461.6
283.15 K, m1 = 0.1666 | 1004.17 | 1465
283.15 K, m1 = 0.2025 | 1005.15 | 1468.9
283.15 K, m1 = 0.2321 | 1006.04 | 1472.1
283.15 K, m1 = 0.2787 | 1007.06 | 1477.1
283.15 K, m1 = 0.297 | 1007.53 | 1479.1
283.15 K, m1 = 0.3314 | 1008.49 | 1482.8
283.15 K, m1 = 0.3663 | 1009.41 | 1486.6
283.15 K, m1 = 0.3972 | 1010.11 | 1489.9
